Earlier results on three molecules are cited in patent publication US7300923B2, “Partial and full agonists of A1 adenosine receptors” (CV Therapeutics, Inc., priority 2004, dated 2007).

The subject of data set [1] is seizures induced by DMCM. To be noted: seizures induced by the inverse benzodiazepine agonist DMCM.
Data set [2] has as its target T1, A1-adenosine receptor (Homo sapiens, UniProt P30542).
T1 sequence (P30542 1-326): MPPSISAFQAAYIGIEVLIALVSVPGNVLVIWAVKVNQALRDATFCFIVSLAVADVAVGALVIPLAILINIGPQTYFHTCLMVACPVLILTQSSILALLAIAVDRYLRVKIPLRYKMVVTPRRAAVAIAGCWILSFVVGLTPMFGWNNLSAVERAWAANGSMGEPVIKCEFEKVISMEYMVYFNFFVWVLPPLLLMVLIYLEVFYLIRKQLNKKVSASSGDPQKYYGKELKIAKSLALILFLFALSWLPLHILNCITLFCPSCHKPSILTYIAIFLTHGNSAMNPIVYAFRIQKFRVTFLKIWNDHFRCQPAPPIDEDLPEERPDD

`Cc1ccccc1CNc1ncnc2c1ncn2[C@@H]1O[C@H](CO)[C@@H](O)[C@H]1O` [metrifudil]: the anticonvulsant activity result in data set [1] is “potent anticonvulsant”.
For the molecule `OC1CCCC1Nc1ncnc2c1ncn2[C@@H]1O[C@H](CSc2ccccc2F)[C@@H](O)[C@H]1O` (mixture of isomers) [(4S,5S,2R,3R)-5-[(2-fluorophenylthio)methyl]-2-{6-[(2-hydroxy-cyclopentyl)amino]-purin-9-yl}oxolane-3,4-diol], the “A1-adenosine receptor agonist profile” value in data set [2] is given as “highly selective partial A1-adenosine receptor agonist”.
Take `Nc1ncnc2c1ncn2[C@@H]1O[C@H](CO)[C@@H](O)[C@H]1O` [adenosine, Adenosine]: the half-life result is on record as “less than 10 sec”.
